According to patent US9221985B2, “Solvent compositions” (TBF Environmental Technology, Inc., priority 2013, dated 2015):
Like-named read-outs stand apart in the source and are kept apart here.

Columns and labels:
[1] = Hansen solubility parameters
Source text: In some embodiments, a solvent composition according to the present disclosure includes an acetate ester, such as MA, EA, or TBAc, in combination with one or more additional reagents to increase dispersion and decrease hydrogen bonding and/or to decrease the polarity of the solvent composition.

[2] = Viscosity of Paraloid B-66 DMC acrylic resin with reduction in solids; assay type: physicochemical
[3] = Evaporation rate relative to n-butyl acetate / xylene; assay type: physicochemical
Source text: […]. […] Without being bound to any particular theory, the “tail” solvent may slow the drying of a coating towards the end, allowing time for it to flow and level, and preventing dry spray, thereby improving the film appearance.
The evaporation rate of Formulation 1vs xylene was examined (FIG. 1). Formulation 1 was faster evaporating than xylene by a factor of 1.63-1.65. However it was apparent that the evaporation rate of Formulation 1 slowed towards the end. This slower “Tail” would aid in flow and leveling and help prevent dry spray.

[4] = Solvency or reduction characteristics: viscosity of epoxy resin reduced with solvent; assay type: physicochemical
[5] = Physical/chemical characteristics of the solvents (specific gravity, flash point, boiling point, viscosity, surface tension, volatility); conditions: for Surface tension: at 20° C.
[6] = cited from earlier work
[7] = reduced to 35.0% non-volatile with the solvent
[8] = reduced to 40.0% non-volatile with the solvent
[9] = relative to n-butyl acetate = 1
[10] = EPON 828 reduced to 95% solids content by weight

In the case of `FC(F)(F)c1ccc(Cl)cc1` [PCBTF, parachlorobenzotrifluoride], the “δ (Hansen solubility parameter)” value [1] is reported as 9.15 cal^1/2 cm^−3/2, the “δD (dispersion)” value [1] is reported as 8.8 cal^1/2 cm^−3/2 and the “δH (hydrogen bonding)” value [1] is reported as 1.9 cal^1/2 cm^−3/2. For the same compound, the “δP (polar)” value [1] was 2.9 cal^1/2 cm^−3/2, the “Viscosity of Paraloid B-66 DMC” value [2, 7] was 450 cps and the “Viscosity of Paraloid B-66 DMC” value [2, 8] was 1050 cps. The “Evaporation rate (n-butyl acetate = 1)” value [3, 9] was 0.9, the “Viscosity @ 20 RPM” value ([4]; EPON 828, 50% solids content) was 27 cps and the “Viscosity @ 20 RPM” value ([4]; EPON 828, 55% solids content) was 38 cps. For the same compound, the “Viscosity @ 20 RPM” value ([4]; EPON 828, 60% solids content) was 52 cps, the “Viscosity @ 20 RPM” value ([4]; EPON 828, 65% solids content) was 91 cps and the “Viscosity @ 20 RPM” value ([4]; EPON 828, 70% solids content) was 153 cps. For the same compound, the “Viscosity @ 20 RPM” value ([4]; EPON 828, 75% solids content) was 278 cps, the “Viscosity @ 20 RPM” value ([4]; EPON 828, 80% solids content) was 544 cps and the “Viscosity @ 20 RPM” value ([4]; EPON 828, 85% solids content) was 1010 cps. The “Viscosity @ 20 RPM” value ([4]; EPON 828, 90% solids content) was 1900 cps, the “Viscosity @ 20 RPM” value [4, 10] was 5125 cps and the “Boiling Point” value [5] was 139 °C. For the same compound, the “Viscosity @ 20° C.” value [5] was 0.79 (mPa · s) cP, the “Specific Gravity (@25° C.)” value [5] was 1.34 and the “Flashpoint (TCC)” value [5] was 109 °C. The Surface tension [5] was 25 dyn/cm.
With `Cc1ccccc1` [Toluene, toluene] the “δD (dispersion)” value [1] was 8.8 cal^1/2 cm^−3/2, the “δH (hydrogen bonding)” value [1] was 0.98 cal^1/2 cm^−3/2 and the “δP (polar)” value [1] was 0.68 cal^1/2 cm^−3/2. For the same compound, the “Evaporation rate (n-butyl acetate = 1)” value [3, 9] was 1.9, the “Viscosity @ 20° C.” value [5] was 0.59 (mPa · s) cP and the “Specific Gravity (@25° C.)” value [5] was 0.86. The “Flashpoint (TCC)” value [5] was 16 °C and the Surface tension [5] was 27.73 dyn/cm.
With `CC(=O)OC(C)(C)C` [TBAc, tert-butyl acetate] the “δD (dispersion)” value [1] was 7 cal^1/2 cm^−3/2, the “δH (hydrogen bonding)” value [1] was 2.9 cal^1/2 cm^−3/2 and the “δP (polar)” value [1] was 1.7 cal^1/2 cm^−3/2. The “Viscosity of Paraloid B-66 DMC” value [2, 7] was 290 cps, the “Viscosity of Paraloid B-66 DMC” value [2, 8] was 780 cps and the “Evaporation rate (n-butyl acetate = 1)” value [3] was 2.8. The “Viscosity @ 20 RPM” value ([4]; EPON 828, 50% solids content) was 15 cps, the “Viscosity @ 20 RPM” value ([4]; EPON 828, 55% solids content) was 19 cps and the “Viscosity @ 20 RPM” value ([4]; EPON 828, 60% solids content) was 22 cps. For the same compound, the “Viscosity @ 20 RPM” value ([4]; EPON 828, 65% solids content) was 26 cps, the “Viscosity @ 20 RPM” value ([4]; EPON 828, 70% solids content) was 81 cps and the “Viscosity @ 20 RPM” value ([4]; EPON 828, 75% solids content) was 93 cps. The “Viscosity @ 20 RPM” value ([4]; EPON 828, 80% solids content) was 192 cps, the “Viscosity @ 20 RPM” value ([4]; EPON 828, 85% solids content) was 430 cps and the “Viscosity @ 20 RPM” value ([4]; EPON 828, 90% solids content) was 1150 cps. The “Viscosity @ 20 RPM” value [4, 10] was 4250 cps, the “Boiling Point” value [5] was 98 °C and the “Viscosity @ 20° C.” value [5] was 0.7 (mPa · s) cP. For the same compound, the “Specific Gravity (@25° C.)” value [5] was 0.87, the “Flashpoint (TCC)” value [5] was 16.7 °C and the Surface tension [5] was 22.4 dyn/cm.
For xylene [Xylenes], the “δD (dispersion)” value [1] was 9.2 cal^1/2 cm^−3/2, the “δH (hydrogen bonding)” value [1] was 1.15 cal^1/2 cm^−3/2 and the “δP (polar)” value [1] was 1.3 cal^1/2 cm^−3/2. The “Viscosity of Paraloid B-66 DMC” value [2, 7] was 580 cps, the “Viscosity of Paraloid B-66 DMC” value [2, 8] was 1500 cps and the “Evaporation rate (n-butyl acetate = 1)” value [3] was 0.9. The “Viscosity @ 20 RPM” value ([4]; EPON 828, 50% solids content) was 13 cps, the “Viscosity @ 20 RPM” value ([4]; EPON 828, 55% solids content) was 17 cps and the “Viscosity @ 20 RPM” value ([4]; EPON 828, 60% solids content) was 19 cps. The “Viscosity @ 20 RPM” value ([4]; EPON 828, 65% solids content) was 28 cps, the “Viscosity @ 20 RPM” value ([4]; EPON 828, 70% solids content) was 40 cps and the “Viscosity @ 20 RPM” value ([4]; EPON 828, 75% solids content) was 76 cps. For the same compound, the “Viscosity @ 20 RPM” value ([4]; EPON 828, 80% solids content) was 148 cps, the “Viscosity @ 20 RPM” value ([4]; EPON 828, 85% solids content) was 330 cps and the “Viscosity @ 20 RPM” value ([4]; EPON 828, 90% solids content) was 880 cps. For the same compound, the “Viscosity @ 20 RPM” value [4, 10] was 3350 cps, the “Boiling Point” value [5] was 110.6-144 °C and the “Viscosity @ 20° C.” value [5] was 0.34-0.8 (mPa · s) cP. The “Specific Gravity (@25° C.)” value [5] was 0.87, the “Flashpoint (TCC)” value [5] was 17-25 °C and the “Flashpoint (TCC)” value ([5]; listed as xylene) was 30 °C. The Surface tension [5] was 25.32-28.27 dyn/cm.
With `COC(=O)OC` [DMC, dimethyl carbonate] the “Viscosity of Paraloid B-66 DMC” value [2, 7] was 370 cps and the “Viscosity of Paraloid B-66 DMC” value [2, 8] was 970 cps.
For `COC(C)=O` [MA, methyl acetate], the solubility in water ([6]; in water at room temperature) is given as 25%, the stability ([6]; strong aqueous bases or aqueous acids) is given as “not stable in the presence of strong aqueous bases or aqueous acids” and the “δ (Hansen solubility parameter)” value [1] is given as 9.5 cal^1/2 cm^−3/2. For the same compound, the “δD (dispersion)” value [1] was 7.6 cal^1/2 cm^−3/2, the “δH (hydrogen bonding)” value [1] was 3.7 cal^1/2 cm^−3/2 and the “δP (polar)” value [1] was 3.5 cal^1/2 cm^−3/2. The “Evaporation rate (n-butyl acetate = 1)” value [3, 9] was 6.2, the “Boiling Point” value [5] was 56 °C and the “Viscosity @ 20° C.” value [5] was 0.37 (mPa · s) cP. The “Specific Gravity (@25° C.)” value [5] was 0.93, the “Flashpoint (TCC)” value [5] was −4 °C and the Surface tension [5] was 24.8 dyn/cm.
